Where two headings read alike, the source gives them in different places.
Key:
[1] = test system: THP-1 cell line; assay: in vitro toxicity (cell viability); type: cell-based; conditions: regardless of the dose tested; Figure 6
[2] = test system: AIM-2, NLRP2, NLRC3 or NLRC4; assay: expression of other inflammasome proteins (western blot, Figure 5); type: cell-based
Procedure: (§1) For biological assays, the THP-1 cell line (monocytes) was used and differentiated into macrophages using phorbol-12-myristate-13-acetate (PMA). They were then stimulated with 200 ng/mL ultrapure LPS for 4 hours, minus the negative control condition, to activate NLRP3 expression. At the same time, the necessary volume of the starting stock of each compound to be tested was added to reach the test concentration. After 4 h incubation at 37 °C, 5 mM ATP was added […] and incubated for 30 min to activate NLRP3 assembly. For NLRP1 activation, Valboropro, a specific inducer of this protein was used at 1µM for 24 hours. Protein expression levels were studied by western blot as a proteomic study and inflammation levels by determination of cytokines released into the medium by immunoassay techniques (ELISA).
This is reflected by the increased ability of C3 to inhibit the expression of NLRP1, NLRP3, IL-1β and IL-18 compared to MCC950 and C5 (Figure 5 and Figure 8).

[3] = biological target: T1, NEK7 to NLRP3 (Homo sapiens, UniProt Q96P20); assay: NEK7 co-immunoprecipitation; type: binding; conditions: Figure 7
T1 construct: For biological assays, the THP-1 cell line (monocytes) was used; endogenous in cells
T1 sequence (Q96P20 whole entry): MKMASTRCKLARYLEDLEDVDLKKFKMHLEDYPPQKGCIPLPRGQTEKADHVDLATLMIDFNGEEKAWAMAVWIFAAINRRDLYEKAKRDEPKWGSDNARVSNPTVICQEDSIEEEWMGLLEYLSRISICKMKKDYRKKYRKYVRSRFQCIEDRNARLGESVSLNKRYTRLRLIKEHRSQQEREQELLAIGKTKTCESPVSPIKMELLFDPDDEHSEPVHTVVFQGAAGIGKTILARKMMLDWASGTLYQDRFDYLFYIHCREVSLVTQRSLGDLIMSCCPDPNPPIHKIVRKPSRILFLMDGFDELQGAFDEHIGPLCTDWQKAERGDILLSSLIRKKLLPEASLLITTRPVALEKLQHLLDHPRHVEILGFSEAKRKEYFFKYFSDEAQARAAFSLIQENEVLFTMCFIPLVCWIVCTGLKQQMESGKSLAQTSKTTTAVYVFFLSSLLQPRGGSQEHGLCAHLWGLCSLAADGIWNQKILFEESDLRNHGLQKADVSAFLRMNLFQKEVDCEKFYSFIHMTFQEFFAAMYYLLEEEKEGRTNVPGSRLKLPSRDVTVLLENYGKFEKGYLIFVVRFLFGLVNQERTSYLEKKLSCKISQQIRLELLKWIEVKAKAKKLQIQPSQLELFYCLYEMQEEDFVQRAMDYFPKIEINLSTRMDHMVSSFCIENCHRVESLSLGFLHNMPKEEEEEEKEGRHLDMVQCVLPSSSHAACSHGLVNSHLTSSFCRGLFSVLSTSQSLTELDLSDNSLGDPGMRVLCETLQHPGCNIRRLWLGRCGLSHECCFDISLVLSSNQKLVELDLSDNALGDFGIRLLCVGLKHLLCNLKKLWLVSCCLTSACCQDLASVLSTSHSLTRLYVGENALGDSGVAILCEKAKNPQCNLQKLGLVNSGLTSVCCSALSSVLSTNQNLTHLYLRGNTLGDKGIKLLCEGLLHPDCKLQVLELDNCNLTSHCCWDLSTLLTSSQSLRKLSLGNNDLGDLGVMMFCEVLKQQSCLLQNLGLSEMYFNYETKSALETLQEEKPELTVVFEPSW
Text: One of the possible mechanisms for NLRP3 inhibition is the inhibition of its binding to NEK7, since it has been shown that NEK7 interacts with NLRP3 to modulate NLRP3 inflammasome activation.

[4] = biological target: T2, NLRP1 (Homo sapiens, UniProt Q9C000); assay: in vitro model of NLRP1 induction (ValboroPro) in THP-1 macrophages, protein expression by western blot; type: cell-based; conditions: ValboroPro (Vbp) induction; dose-dependent; Figure 3
T2 construct: the THP-1 cell line (monocytes) was used and differentiated into macrophages; endogenous in cells; host or cells: THP-1 monocytes differentiated into macrophages with PMA
T2 sequence (Q9C000 1-1473): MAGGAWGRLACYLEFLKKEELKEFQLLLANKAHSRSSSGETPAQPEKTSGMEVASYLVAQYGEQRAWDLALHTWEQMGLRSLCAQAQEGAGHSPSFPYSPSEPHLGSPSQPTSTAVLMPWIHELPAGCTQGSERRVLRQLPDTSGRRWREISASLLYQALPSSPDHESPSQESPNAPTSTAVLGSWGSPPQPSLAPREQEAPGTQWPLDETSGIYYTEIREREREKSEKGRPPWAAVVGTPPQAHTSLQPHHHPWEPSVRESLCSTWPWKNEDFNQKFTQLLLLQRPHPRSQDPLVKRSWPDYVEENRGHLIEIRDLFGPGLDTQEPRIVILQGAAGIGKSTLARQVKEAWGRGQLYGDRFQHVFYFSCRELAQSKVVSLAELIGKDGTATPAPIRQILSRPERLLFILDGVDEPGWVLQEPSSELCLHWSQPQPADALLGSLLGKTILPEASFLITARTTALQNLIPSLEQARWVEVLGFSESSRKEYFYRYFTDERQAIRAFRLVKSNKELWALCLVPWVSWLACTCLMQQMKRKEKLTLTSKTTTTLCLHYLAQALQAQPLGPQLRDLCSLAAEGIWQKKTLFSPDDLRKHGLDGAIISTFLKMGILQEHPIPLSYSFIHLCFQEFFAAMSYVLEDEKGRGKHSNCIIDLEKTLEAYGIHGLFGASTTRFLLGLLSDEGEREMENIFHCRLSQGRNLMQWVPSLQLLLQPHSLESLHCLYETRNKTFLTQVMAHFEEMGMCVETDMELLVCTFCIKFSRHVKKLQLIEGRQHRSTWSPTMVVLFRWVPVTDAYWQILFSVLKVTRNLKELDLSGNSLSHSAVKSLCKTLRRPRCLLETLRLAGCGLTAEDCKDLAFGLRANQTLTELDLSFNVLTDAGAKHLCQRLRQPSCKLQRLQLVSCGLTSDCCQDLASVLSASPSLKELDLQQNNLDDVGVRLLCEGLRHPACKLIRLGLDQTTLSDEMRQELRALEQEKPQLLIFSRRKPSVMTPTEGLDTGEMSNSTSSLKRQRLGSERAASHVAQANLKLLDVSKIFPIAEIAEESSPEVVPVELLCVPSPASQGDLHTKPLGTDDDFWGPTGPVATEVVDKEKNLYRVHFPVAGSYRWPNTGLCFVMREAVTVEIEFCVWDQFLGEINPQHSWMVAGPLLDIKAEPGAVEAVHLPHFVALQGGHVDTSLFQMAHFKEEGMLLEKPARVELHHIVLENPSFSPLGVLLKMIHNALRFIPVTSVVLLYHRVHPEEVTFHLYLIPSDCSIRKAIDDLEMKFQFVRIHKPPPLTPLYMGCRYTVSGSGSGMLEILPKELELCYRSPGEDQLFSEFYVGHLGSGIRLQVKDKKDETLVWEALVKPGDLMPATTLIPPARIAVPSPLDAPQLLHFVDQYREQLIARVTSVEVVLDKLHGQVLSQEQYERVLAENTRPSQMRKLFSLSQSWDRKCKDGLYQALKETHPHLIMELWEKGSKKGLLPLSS
Procedure: as §1
(§2) The inventors of the present invention evaluated the inhibitory effects of compound C3 in an in vitro model of NLRP3 induction (LPS + ATP), and in an […] model of NLRP1 induction (ValboroPro or Vbp).

[5] = ageing mouse model (age-related metabolic dysfunction); type: in vivo, C57BL/6J mice
Procedure: (§3) For a better characterization of the effect of C3, the inventors determined its effect in two in vivo models: ageing mice (to evaluate the effect in age-related metabolic dysfunction), and ovarian aging mice (to evaluate the effect in infertility because of ovarian aging).
18-month-old C57BL/6J mice were treated with C3 (10 mg/Kg/day i.p.) or with a vehicle solution (saline) for over 4 weeks.

[6] = biological target: T3, NLRP3 (Homo sapiens, UniProt Q96P20); assay: in vitro model of NLRP3 induction (LPS + ATP) in PMA-differentiated THP-1 macrophages, protein expression by western blot; type: cell-based
T3 construct: the THP-1 cell line (monocytes) was used and differentiated into macrophages; endogenous in cells; host or cells: THP-1 monocytes differentiated into macrophages with PMA
T3 sequence (Q96P20 whole entry): as the sequence (Q96P20 whole entry) above
Procedure: as §1, §2

[7] = test system: NLRP3 inflammasome; assay: cytokines released into the culture medium after LPS+ATP activation (ELISA); type: cell-based; conditions: for IC50: estimated inhibitory capacity; for IL-1β cytokine release: in vitro treatment, Figure 9
Procedure: as §1

[8] = ovarian ageing mouse model; type: in vivo, mice
Text: as §3
The second model used to evaluate the effect of C3 was related to ovarian aging. The reason behind this is that NLRP1 and NLRP3 is over-expressed during ovarian ageing (Figure 15).
For this, the inventors used 9-month-old adult mice to which C3 was administered for one month.

[9] = 18-month-old mice, 10 mg/Kg/day i.p., over 4 weeks, vs vehicle, Figure 10
[10] = ageing mice, 10 mg/Kg/day i.p., Figure 12
[11] = microscopic liver sections, Figure 12
[12] = old mice, 10 mg/Kg/day i.p., Figure 11
[13] = 9-month-old mice, administered for one month, Figure 13
[14] = histological staining, vs vehicle, Figure 14

In the case of CS(=O)(=O)NCc1cccc2ccccc12 [Compound C3, N-(naphthalen-1-ylmethyl) methanesulfonamide], the cell viability [1] is reported as “above 85%”, the “modulation of other inflammasome proteins such as AIM-2, NLRP2, NLRC3 or NLRC4” value [2] is reported as “did not result in the modulation” and the “binding of NEK7 to NLRP3” value [3] is reported as “inhibited the binding”. The “expression of NLRP1” value [4] was “inhibited the expression”, the abdominal fat [5, 9] was “significantly reduced” and the body weight [5, 9] was “significantly reduced”. The NLRP1 protein expression [5, 10] was “significant reduction”, the NLRP3 protein expression [5, 10] was “significant reduction” and the “serum IL1β levels” value [5, 10] was “significant reduction”. The age-associated hepatic fibrosis [5, 11] was “significantly reduced”, the age-associated hepatic steatosis [5, 11] was “significantly reduced” and the “glucose levels upon glucose challenges at the OGTT peak (>15 min)” value ([5]; old mice, 10 mg/Kg/day i.p., vs control, Figure 11) was “significantly decreased”. For the same compound, the serum leptin/adiponectin [5, 12] was “reduced”, the “serum levels of adiponectin” value [5, 12] was “reduced” and the “serum levels of leptin” value [5, 12] was “reduced”. The “expression of NLRP3” value ([6]; LPS + ATP induction, dose-dependent, Figure 3) was “inhibited the expression”, the “expression of the inflammasome activation-associated protein IL-1β” value ([6]; LPS+ATP or VbP induction, dose-dependent, Figure 3) was “reduced the expression” and the “inhibitory capacity (expression of NLRP1, NLRP3, IL-1β and IL-18)” value ([6]; compared to MCC950 and C5, Figure 5 and Figure 8) was “increased inhibitory capacity”. The IC50 ([7]; Figure 4A, read-out: IC50 (IL-1β) release into the culture medium) was 0.00538 µM, the IC50 ([7]; Figure 4B, read-out: IC50 (IL-18) release into the culture medium) was 4.45 µM and the AMH receptor [8, 13] was “increase”. The “Follicle-stimulating hormone (FSH)” value [8, 13] was “reduction”, the “antimüllerian hormone (AMH)” value [8, 13] was “significant increase” and the “protein levels of active Caspase 1” value [8, 13] was “decreased”. The “protein levels of active IL-1β” value [8, 13] was “decreased”, the “improvement of the ovarian reserve by AMH hormone” value ([8]; compared to NLRP1 KO and NLRP3 KO mice, Figure 15) was “significantly higher improvement” and the “percentage of atretic follicles” value [8, 14] was “lower percentage”. The percentage of follicles [8, 14] was “higher percentage”.

For CS(=O)(=O)NCc1ccc(Cl)cc1 [Compound C4, N-(4-chlorobenzyl) methanesulfonamide], the IL-1β cytokine release [7] was “reduction”.

For COc1ccc(CNS(C)(=O)=O)cc1 [Compound C1, N-(4-methoxybenzyl) methanesulfonamide], the IL-1β cytokine release [7] was “reduction”.

For CS(=O)(=O)NCc1ccc2c(c1)OCO2 [Compound C2, N-(4,5-methylenedioxybenzyl) methanesulfonamide], the IL-1β cytokine release [7] was “reduction”.

For O=S(=O)(Cc1ccc2ccccc2c1)NCc1ccccc1 [Compound C7, N-benzyl-1-(naphthalen-2-yl) methanesulfonamide], the IL-1β cytokine release [7] was “reduction”.
